The text below walks through data of patent US11512078B2, “Addition salt of S1P1 receptor agonist and crystal form thereof, and pharmaceutical composition” (SUZHOU CONNECT BIOPHARMACEUTICALS, LTD., priority 2018, dated 2022).

Series [1] is described as follows: Solubility of free state and salt forms in water by HPLC. Format: physicochemical. Conditions: stirred 2 h at 25° C., filtered. The protocol:
HPLC solubility data were collected with Agilent 1260 high performance liquid chromatograph. The chromatographic column used was Poroshell 120 EC-C18 ([…]), the detection wavelength was 254 nm, column temperature for detection was 40° C., flow rate was 1.5 mL/min, and the sample volume was 5 μL. A sample was dissolved in mobile phase B to prepare a sample solution of a concentration about 0.45 mg/mL, and HPLC detection was performed according to the following gradient elution mode to obtain concentration in the sample.
Then samples were taken and filtered, and the concentrations were detected by HPLC. The solubility of the active ingredient in each of the samples in water was calculated.

A further series in a line: Hygroscopicity by DVS. The class given is physicochemical. Conditions: relative humidity 20%-80%; for Moisture uptake: DVS; for Appearance: after DVS. The protocol:
Dynamic Vapor Sorption (DVS) data and isothermal sorption analysis data were collected with TA Instruments Q5000 TGA. The detection method used was as follows: 1-10 mg of a sample was placed in a platinum crucible, and weight change with the change of relative humidity from 20% to 80% was detected.

Series [2] is described as follows: Crystal form storage stability, 30 days under conventional, high-temperature and accelerated conditions. The class given is physicochemical. Conditions: 1 month under conventional, high-temperature (60° C.) and accelerated conditions (40° C.-75% relative humidity). The protocol: The crystal form of the sulfate of the compound represented by formula A and the crystal form of the maleate of the compound represented by formula A according to the present application were taken to perform a stability experiment. Specific operation was as follows: 60 mg of the samples of the crystal form of the sulfate of the compound represented by formula A and the crystal form of the maleate of the compound represented by formula A according to the present application were taken and placed for 30 days respectively under conventional condition (sealed and placed in a dark place at 25° C.), high-temperature condition (sealed and placed in a dark place at 60° C.) and accelerated condition (opened and placed in a dark place at 40° C.-75% relative humidity) to study crystal form stability.

Series [3] in a line: Crystal form stability of salt forms as suspensions in solvents. Conditions: for Crystal form after stirring suspension: room temperature.
Series [4] can be described thus: Crystal form stability of free state in solvents (Comparative Example 1 of CN105315266A). Format: physicochemical. From the text: Identification, preparation, a composition and use of the compound represented by formula A are disclosed in patent document CN103450171A (which is incorporated herein by reference in its entirety). Specifically, a method for preparing the compound is disclosed in Example 2. 12 crystal forms of the compound represented by formula A are disclosed in patent document CN105315266A (which is incorporated herein by reference in its entirety).

The conditions of series [5]: start: crystal forms I-XII and amorphous form, cited from earlier work.
The nature of series [6]: Solubility of sodium salt in water (water gradually added until clear). Conditions: thermodynamic from solid; in water at 25° C.; deionized water gradually added, ultrasonication to clear solution. Format: physicochemical. The protocol:
The solubility of the sample in water was calculated.

Series [7] can be described thus: Thermal stability, decomposition temperature by TGA. The class given is physicochemical. The protocol:
Thermogravimetric Analysis (TGA) data were collected with TA Instruments Q500 TGA. The detection method used was as follows: 5-15 mg of a samples was placed in a platinum crucible, and a segmented high-resolution detection method was adopted in which the temperature of the sample was increased from room temperature to 300° C. at a heating rate of 10° C./min under the protection of 40 mL/min dry N2.

A short description of series [8]: Storage stability of sodium salt crystal form, 4 months. Conditions: room temperature, relative humidity 10%-90%. The class given is physicochemical.

Each structure is given as a SMILES string. Like-named read-outs stand apart in the source and are kept apart here.

As to `CC(C)Cc1ccc(-c2nc(-c3ccc(CN4CC(C(=O)O)C4)c(F)c3)no2)cc1` [sulfate of 1-{2-fluoro-4-[5-(4-isobutylphenyl)-1,2,4-oxadiazole-3-yl]benzyl}-3-azetidinecarboxylic acid], the Solubility amounted to 19.2 µg/mL in series [1] and 19 µg/mL in [1] (listed as sulfate of the compound represented by formula A). For the same compound, the Moisture uptake in the series “Hygroscopicity by DVS” is reported as 0.7%. The Appearance entry in “Hygroscopicity by DVS” was “Powder”. For the same compound, the “Appearance, XRPD pattern and melting point after storage” value (from here on “Appearance … after storage”) in [2] is reported as “unchanged”. Besides, the “Crystal form after stirring suspension” value in [3] (Acetone, 3 days) is recorded as “No change”; in series [3] (Ethanol, 3 days), “No change”; in series [3] (Isopropanol, 3 days), “No change”; in [3] (Water, 3 days) it was “No change”; in series [3] (Water:acetone = 1:1, 3 days), “No change”; in series [3] (Water:acetone = 1:5, 3 days), “No change”. The “Crystal form after stirring suspension” value in [3] (Water:acetone = 1:10, 3 days) is on record as “No change”; in series [3] (Water:acetone = 1:100, 3 days) it was “No change”; in series [3] (Water:ethanol = 1:1, 3 days), “No change”; in [3] (Water:ethanol = 1:5, 3 days), “No change”; in series [3] (Water:ethanol = 1:10, 3 days), “No change”; in series [3] (Water:ethanol = 1:100, 3 days) it was “No change”. In addition, the “Stability of crystal form in aqueous systems” value (shortened to “Stability of crystal form”) in series [3] is reported as “stable”.

On to `CC(C)Cc1ccc(-c2nc(-c3ccc(CN4CC(C(=O)O)C4)c(F)c3)no2)cc1.O=C(O)/C=C\C(=O)O` [maleate of 1-{2-fluoro-4-[5-(4-isobutylphenyl)-1,2,4-oxadiazole-3-yl]benzyl}-3-azetidinecarboxylic acid], for which the solubility at 2 h in series [1] (deionized water, 25 °C, water, thermodynamic from solid) was 16 µg/mL. Also, the Solubility in [1] came to 16.1 µg/mL. This compound also had a Moisture uptake in “Hygroscopicity by DVS” of 0.4%. For the same compound, the Appearance result in the series “Hygroscopicity by DVS” is reported as “Powder”. Besides, in series [2], the “Appearance … after storage” value is recorded as “unchanged”. Further, the “Crystal form after stirring suspension” value was “No change” in [3] (Acetone, 3 days); “No change” in series [3] (Ethanol, 3 days); “No change” in [3] (Isopropanol, 3 days); “No change” in series [3] (Water, 3 days); “No change” in series [3] (Water:acetone = 1:1, 3 days); “No change” in series [3] (Water:acetone = 1:5, 3 days). For the same compound, the “Crystal form after stirring suspension” value is reported as “No change” in series [3] (Water:acetone = 1:10, 3 days); “No change” in series [3] (Water:acetone = 1:100, 3 days); “No change” in [3] (Water:ethanol = 1:1, 3 days); “No change” in [3] (Water:ethanol = 1:5, 3 days); “No change” in series [3] (Water:ethanol = 1:10, 3 days); “No change” in [3] (Water:ethanol = 1:100, 3 days). The “Stability of crystal form” value in series [3] was “stable”.

In the case of `CC(C)Cc1ccc(-c2nc(-c3ccc(CN4CC(C(=O)O)C4)c(F)c3)no2)cc1` [1-{2-fluoro-4-[5-(4-isobutylphenyl)-1,2,4-oxadiazole-3-yl]benzyl}-3-azetidinecarboxylic acid], the Solubility in [1] (listed as compound represented by formula A) worked out at 1.1 µg/mL. In addition, the “Most stable crystal form” value in series [4] (in an organic solvent) is listed as “crystal form IV”; in series [4] (in water), “crystal form I”. In addition, the Final crystal form entry in series [5] (Acetone) was “Crystal form IV”; in [5] (Ethanol), “Crystal form IV”; in series [5] (Isopropanol), “Crystal form IV”; in series [5] (Water:acetone = 1:1), “Crystal form I”; in series [5] (Water:acetone = 1:5), “Crystal form I”; in series [5] (Water:acetone = 1:10), “Crystal form I”. The Final crystal form entry in series [5] (Water:acetone = 1:100), in series [5] (Water:ethanol = 1:1), in series [5] (Water:ethanol = 1:5), in series [5] (Water:ethanol = 1:10), in series [5] (Water:ethanol = 1:100) and in [5] (Water) was “Crystal form I” in each case.

For `CC(C)Cc1ccc(-c2nc(-c3ccc(CN4CC(C(=O)[O-])C4)c(F)c3)no2)cc1.[Na+]` [sodium salt of 1-{2-fluoro-4-[5-(4-isobutylphenyl)-1,2,4-oxadiazole-3-yl]benzyl}-3-azetidinecarboxylic acid], in series [6], the Solubility was found to be 10000 µg/mL. In addition, in series [7], the Decomposition temperature came to 275 °C. The “Appearance … after storage” value in series [8] is recorded as “unchanged”. The “Crystal form after stirring suspension” value in series [3] (Acetone, 3 days) is “No change”; in [3] (Ethanol, 3 days) it was “No change”; in series [3] (Isopropanol, 3 days), “No change”; in series [3] (Water, 3 days) it was “No change”; in series [3] (Water:acetone = 1:1, 3 days), “No change”; in series [3] (Water:acetone = 1:5, 3 days), “No change”. The “Crystal form after stirring suspension” value in [3] (Water:acetone = 1:10, 3 days) is reported as “No change”; in series [3] (Water:acetone = 1:100, 3 days), “No change”; in series [3] (Water:ethanol = 1:1, 3 days) it was “No change”; in series [3] (Water:ethanol = 1:5, 3 days), “No change”; in [3] (Water:ethanol = 1:10, 3 days), “No change”; in [3] (Water:ethanol = 1:100, 3 days) it was “No change”. For the same compound, the “Stability of crystal form” value in series [3] is reported as “stable”.
